In patent publication US20250084087A1, “BICYCLIC HETEROCYCLES AS MRGPRX2 ANTAGONISTS” (Incyte Corporation, priority 2023, published 2025):

What was measured:
[1] = target: T1, MRGPRX2 (Homo sapiens, UniProt Q96LB1); experiment: MRGPRX2 IP1 HTRF assay; format: cell-based; parameters: host or cells: CHO-K1; settings: CHO-K1 cells stably expressing human MRGPRX2; IP1 accumulation; agonist Cortistatin 14 1 μM
T1 sequence (Q96LB1 1-330): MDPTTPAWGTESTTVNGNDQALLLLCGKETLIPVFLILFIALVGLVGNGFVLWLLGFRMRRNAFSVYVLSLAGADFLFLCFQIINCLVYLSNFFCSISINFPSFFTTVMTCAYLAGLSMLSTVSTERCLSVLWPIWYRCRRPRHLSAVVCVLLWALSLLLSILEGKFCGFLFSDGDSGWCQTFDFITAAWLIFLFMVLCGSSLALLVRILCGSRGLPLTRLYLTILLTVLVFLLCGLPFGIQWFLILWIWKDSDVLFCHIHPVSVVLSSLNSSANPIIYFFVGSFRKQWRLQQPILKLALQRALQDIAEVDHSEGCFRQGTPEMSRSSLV
Excerpt: Example B: MRGPRX2 IP1 HTRF Assay
This assay measures compound inhibition of myo-Inositol 1 phosphate (IP1) accumulation in CHO-K1 cells. Chinese hamster ovary (CHO-K1) cells stably expressing human MRGPRX2 were purchased from GenScript (Piscataway, NJ).
For the HTRF IP1 determination, an IP-One GqKit (Perkin Elmer Cisbio, Waltham, MA), which includes all reagents and buffers in this protocol, was used. The cells were maintained in culture medium (Ham's F-12K) containing 10% (v/v) FBS, and 200 μg/mL Zeocin. For the assay, the cells were harvested and resuspended in culture medium with 2% FBS and without Zeocin, then were passed through a 40 μm filter. Cells were added at 20000 cells in a 5 μL/well to a 384-well white small volume cell culture plate (Greiner VWR, Radnor, PA) which contained 50 nL/well of test compound serially diluted at a selected concentration range in DMSO. 5 μL/well of prepared 2× Stimulation Buffer2 was then added to plates and was incubated at 37° C. with 5% CO2 for 1 h. 5 μL/well of agonist Cortistatin 14 (Bio-TechneR&D Systems, Minneapolis, MN) in 1× Stimulation Buffer2, for a 1 μM final concentration, was then added to plates and incubated at 37° C. with 5% CO2 for 1 h. 6 μL/well of 1:20 diluted Detection Reagent Mix (d2 and Cryptate) was added to the plates and incubated for 1 h in the dark. Plates were read on the PHERAstar microplate reader (BMG Labtech Cary, NC) to determine the HTRF ratio of the acceptor and donor emission signals. The IP1 concentrations were calculated from a standard curve following the IP-One GQ kit instructions. Wells with DMSO only and wells with high concentration of reference antagonist were used as controls for normalization. Compound IC50 curves were globally fitted with 3- or 4-parameter Hill equation in a Genedata Screener (Genedata Basel, Switzerland).

[2] = target: T1, MRGPRX2; experiment: MRGPRX2 β-Arrestin recruitment assay (PathHunter); format: cell-based; parameters: host or cells: CHO-K1 (PathHunter); settings: PathHunter CHO-K1 MRGPRX2 β-Arrestin cell line; agonist Cortistatin 14 0.25 μM
Excerpt: Example C: MRGPRX2 P-Arrestin Assay
This assay measures compound inhibition of P-Arrestin recruitment, which is part of the G protein-independent pathway that results from the ligand-activated GPCR phosphorylation by specific GPCR kinases. The PathHunter CHO-K1 MRPGRX2 B-Arrestin Cell line stably expressing ProLink tagged MRGPRX2 and Enzyme Acceptor Tagged B-Arrestin was purchased from Eurofins DiscoverX, (Fremont, CA).
The cells were maintained in culture medium from the Europhins DiscoverX Cell Culture Kit-107 which includes FBS, hygromycin B and G418. For the assay, the cells were harvested and were resuspended with Cell Plating Reagent 2 (Eurofins DiscoverX). Cells were added 10000 cells in 25 μL/well to a 384-well black cell culture plate (Greiner VWR, Radnor, PA) which contained 125 nL/well of compound at a selected serially diluted concentration range or DMSO. The plate was incubated at 37° C. with 5% CO2 for 1 h. 2 μL/well of agonist Cortistatin 14 was diluted in Protein Dilution Buffer, (Eurofins DiscoverX) for a final concentration of 0.25 μM, was added and the plate was incubated at 37° C. with 5% CO2 for 90 min. 14 μL/well of Detection Reagent Mix (PathHunter Detection Kit, Eurofins DiscoverX) was added to the plates and further incubated for 1 h in the dark. Plates were read on the PHERAstar microplate reader (BMG Labtech Cary, NC) measuring luminescence 0.1 to 1 second per well. Data was normalized using DMSO only wells and wells with high concentration of reference antagonist as controls. Compound IC50 curves were globally fitted with 3- or 4-parameter Hill equation in a Genedata Screener (Genedata Basel, Switzerland).

IC50 [1] [nM]	IC50 [2] [nM]	SMILES
0.1 to 100	0.1 to 100	O=C(N[C@@H]1CC[C@@H](O)C1)N1CC(CNc2cc(C(F)(F)F)nc3cc(C(F)(F)F)nn23)(c2ccc(F)cc2)C1 [Example 53, 3-(((2,5-Bis(trifluoromethyl)pyrazolo[1,5-a]pyrimidin-7-yl)amino)methyl)-3-(4-fluorophenyl)-N-((1R,3R)-3-hydroxycyclopentyl)azetidine-1-carboxamide]
0.1 to 100	0.1 to 100	CC(C)(O)[C@H]1CC[C@H](NC(=O)N2CC(CNc3cc(C(F)(F)F)nc4cc(C(F)(F)F)nn34)(c3ccc(F)cc3)C2)CC1 [Example 55, 3-(((2,5-Bis(trifluoromethyl)pyrazolo[1,5-a]pyrimidin-7-yl)amino)methyl)-3-(4-fluorophenyl)-N-((1r,4r)-4-(2-hydroxypropan-2-yl)cyclohexyl)azetidine-1-carboxamide]
0.1 to 100	0.1 to 100	O=C(N[C@@H]1CC[C@@H](O)C1)N1CCC(CNc2cc(C(F)(F)F)nc3cc(C(F)(F)F)nn23)(c2ccc(F)cc2)CC1 [Example 56, 4-(((2,5-Bis(trifluoromethyl)pyrazolo[1,5-a]pyrimidin-7-yl)amino)methyl)-4-(4-fluorophenyl)-N-((1R,3R)-3-hydroxycyclopentyl)piperidine-1-carboxamide]
0.1 to 100	0.1 to 100	CCc1cc(NCC2(c3ccc(F)cc3)CN(C(=O)NCC(F)(F)F)C2)n2nc(C(F)(F)F)cc2n1 [Example 71, 3-(((5-Ethyl-2-(trifluoromethyl)pyrazolo[1,5-a]pyrimidin-7-yl)amino)methyl)-3-(4-fluorophenyl)-N-(2,2,2-trifluoroethyl)azetidine-1-carboxamide]
0.1 to 100	0.1 to 100	CC(C)(O)CNC1CC(CNc2cc(C(F)(F)F)nc3cc(C(F)(F)F)nn23)(c2ccc(F)cc2)C1 (stereo not shown) [Example 73, 1-((3-(((2,5-Bis(trifluoromethyl)pyrazolo[1,5-a]pyrimidin-7-yl)amino)methyl)-3-(4-fluorophenyl)cyclobutyl)amino)-2-methylpropan-2-ol]
0.1 to 100	0.1 to 100	CC(C)(O)CNC1CCC(CNc2cc(C(F)(F)F)nc3cc(C(F)(F)F)nn23)(c2ccc(F)cc2)CC1 (stereo not shown) [Example 74, 1-((4-(((2,5-Bis(trifluoromethyl)pyrazolo[1,5-a]pyrimidin-7-yl)amino)methyl)-4-(4-fluorophenyl)cyclohexyl)amino)-2-methylpropan-2-ol]
0.1 to 100	0.1 to 100	Cn1ccc(N2CC(CNc3cc(C(F)(F)F)nc4cc(C(F)(F)F)nn34)(c3ccc(F)cc3)C2)nc1=O [Example 90, 4-(3-(((2,5-Bis(trifluoromethyl)pyrazolo[1,5-a]pyrimidin-7-yl)amino)methyl)-3-(4-fluorophenyl)azetidin-1-yl)-1-methylpyrimidin-2(1H)-one]
0.1 to 100	0.1 to 100	C[C@]1(O)C[C@H](NC(=O)N2CC(CNc3cc(C(F)(F)F)nc4cc(C(F)(F)F)nn34)(c3ccc(F)cc3)C2)C1 [Example 91, 3-(((2,5-Bis(trifluoromethyl)pyrazolo[1,5-a]pyrimidin-7-yl)amino)methyl)-3-(4-fluorophenyl)-N-((1r,3r)-3-hydroxy-3-methylcyclobutyl)azetidine-1-carboxamide]
0.1 to 100	0.1 to 100	O=C(NC[C@H]1C[C@H](O)C1)N1CC(CNc2cc(C(F)(F)F)nc3cc(C(F)(F)F)nn23)(c2ccc(F)cc2)C1 [Example 92, 3-(((2,5-Bis(trifluoromethyl)pyrazolo[1,5-a]pyrimidin-7-yl)amino)methyl)-3-(4-fluorophenyl)-N-(((1r,3r)-3-hydroxycyclobutyl)methyl)azetidine-1-carboxamide]
0.1 to 100	0.1 to 100	O=C(N[C@H]1CC[C@@H]1O)N1CC(CNc2cc(C(F)(F)F)nc3cc(C(F)(F)F)nn23)(c2ccc(F)cc2)C1 [Example 93, 3-(((2,5-Bis(trifluoromethyl)pyrazolo[1,5-a]pyrimidin-7-yl)amino)methyl)-3-(4-fluorophenyl)-N-((1S,2S)-2-hydroxycyclobutyl)azetidine-1-carboxamide]

The next lines start with the compound.

SMILES	IC50 [1] [nM]	IC50 [2] [nM]
O=C(N[C@H]1CC[C@](O)(C(F)(F)F)CC1)N1CC(CNc2cc(C(F)(F)F)nc3cc(C(F)(F)F)nn23)(c2ccc(F)cc2)C1 [Example 54, 3-(((2,5-Bis(trifluoromethyl)pyrazolo[1,5-a]pyrimidin-7-yl)amino)methyl)-3-(4-fluorophenyl)-N-((1s,4s)-4-hydroxy-4-(trifluoromethyl)cyclohexyl)azetidine-1-carboxamide]	0.1 to 100	0.1 to 100
N#CC12CC(NC(=O)N3CC(CNc4cc(C(F)(F)F)nc5cc(C(F)(F)F)nn45)(c4cc(F)cc(F)c4)C3)(C1)C2 [Example 65, 3-(((2,5-Bis(trifluoromethyl)pyrazolo[1,5-a]pyrimidin-7-yl)amino)methyl)-N-(3-cyanobicyclo[1.1.1]pentan-1-yl-3-3,5-difluorophenyl)azetidine-1-carboxamide]	0.1 to 100	0.1 to 100
O=C(N[C@H]1CC[C@H](O)CC1)N1CC(CNc2cc(C3CC3)nc3cc(C(F)(F)F)nn23)(c2ccc(F)cc2)C1 [Example 69, 3-(((5-Cyclopropyl-2-(trifluoromethyl)pyrazolo[1,5-a]pyrimidin-7-yl)amino)methyl)-3-(4-fluorophenyl)-N-((1r,4r)-4-hydroxycyclohexyl)azetidine-1-carboxamide]	0.1 to 100	0.1 to 100
O=C(N[C@H]1CC[C@H](O)CC1)N1CC(CNc2cc(C(F)(F)F)nc3cc(C(F)F)nn23)(c2ccc(F)cc2)C1 [Example 98, 3-(((2-(Difluoromethyl)-5-(trifluoromethyl)pyrazolo[1,5-a]pyrimidin-7-yl)amino)methyl)-3-(4-fluorophenyl)-N-((1r,4r)-4-hydroxycyclohexyl)azetidine-1-carboxamide]	0.1 to 100	0.1 to 100
O=C(N[C@H]1CC[C@H](O)CC1)N1CC(CNc2cc(C(F)(F)F)nc3cc(C(F)(F)F)nn23)(c2ccc(F)cn2)C1 [Example 99, 3-(((2,5-Bis(trifluoromethyl)pyrazolo[1,5-a]pyrimidin-7-yl)amino)methyl)-3-(5-fluoropyridin-2-yl)-N-((1r,4r)-4-hydroxycyclohexyl)azetidine-1-carboxamide]	0.1 to 100	0.1 to 100
O=C(N[C@H]1CC[C@H](O)CC1)N1CC(CNc2cc(C(F)(F)F)nc3cc(C(F)(F)F)nn23)(c2ccc(F)c(F)c2)C1 [Example 100, 3-(((2,5-Bis(trifluoromethyl)pyrazolo[1,5-a]pyrimidin-7-yl)amino)methyl)-3-(3,4-difluorophenyl)-N-((1r,4r)-4-hydroxycyclohexyl)azetidine-1-carboxamide]	0.1 to 100	0.1 to 100
[2H]C([2H])([2H])NC(=O)N1CC(CNc2cccc3nc(C(F)(F)F)cn23)(c2ccc(F)cc2)C1 [Example 101, 3-(4-Fluorophenyl)-N-(methyl-d3)-3-(((2-(trifluoromethyl)imidazo[1,2-a]pyridin-5-yl)amino)methyl)azetidine-1-carboxamide]	0.1 to 100	0.1 to 100
